Results as given in PMC9694711, “Synthesis of Paclitaxel Derivatives for Remote Loading into Liposomes and Improved Therapeutic Effect” (Molecules, 2022).

How the values were obtained:
[1] = Liposome loading with copper ion gradients (encapsulation efficiency by HPLC); assay type: physicochemical; details: copper ion gradient
Description: Vyxeos® is a liposomal formulation of a fixed molar ratio (1:5) combination of the antineoplastic drugs daunorubicin (DN) and cytarabine (Cyt). Daunorubicin is subsequently actively encapsulated with high efficiency through complexation with intra-liposomal copper. The copper gluconate buffer forms a complex with daunorubicin at a ratio of 1:1 to 1:2 [25]. Referring to Vyxeos®, copper ion was selected as a complexed metal ion in the inner phase. […] Therefore, compound 4d was selected to investigate the effect of the anions on the loading efficiency. Among them, only the neutral gluconate copper was a suitable inner phase to facilitate the encapsulation of compound 4d (Table 3).
(§1) The reason for the stability of the neutral formulations was potentially due to the fact that PBA was effectively […] and interacted with copper more tightly in the neutral condition compared with the acidic condition. Thus, the neutral Cu-gluconate was selected as the inner phase. The concentration of copper ions was also investigated, showing that the higher the copper concentration, the higher the EE. Considering the safety of copper ions, 300 mM was chosen. […] The EE of compound 4d active loading liposome was more than 95% with copper ion gradient. Furthermore, we also evaluated the ATP and saccharides as remote gradients with the optimal formulation of copper ion gradients.
(§2) Blank liposomes were prepared for membrane hydration. HSPC, chol and DSPE-PEG2000 were dissolved using chloroform at a mass ratio of 3:1:0.02 and then spin-evaporated at 37 °C. The obtained film was then hydrated with 300 mM Cu-Glu (pH 7.4) at 65 °C for 30 min. The multi-layer vesicles were subsequently put into an extruder and passed through polycarbonate membranes with pore sizes of 400 nm, 200 nm and 100 nm 12 times at 65 °C containing 20 mM HEPES, 15 mM EDTA and 300 mM sucrose for removing the un-encapsulated Cu^2+, and then EDTA was removed with 20 mM HEPES and 300 mM sucrose buffer (pH 7.4, adjusted with triethylamine). Compound 4d was dissolved in DMSO and slowly added into the liposome at 65 °C for 30 min and then quenched in an ice bath for 5 min (the drug to lipid ratio was 1:10). The encapsulation efficiency and drug loading efficiency of compound 4d were determined using HPLC. The morphologies of liposomes were characterized using a transition electron microscope (TEM, Hitachi HT7700, Tokyo, Japan); then, their size, PDI and Zeta potential were measured using a Zetasizer Nano ZS90 (Malvern, UK).

[2] = system: colon cancer cell line HCT-116; test: MTT assay, cytotoxicity on HCT-116; assay type: cell-based, human; details: for GI50: Homo sapiens, HCT-116, MTT, 72 h, mean of two independent determinations; for TI (LO2/HCT-116): therapeutic index, GI50 LO2 / GI50 HCT-116
Protocol: (§3) MTT assay was applied to verify the rationality of the molecular combination strategy. The cytotoxicity of the compounds was evaluated on lung cancer cell line A549, colon cancer cell line HCT-116, breast cancer cell line 4T1 and normal hepatocyte cell line LO2. Paclitaxel was used as a positive drug. […] The therapeutic index (TI) for LO2/HCT-116, LO2/A549 and LO2/4T1 of active compounds 4a, 4d, 13a, 17a, 17c and paclitaxel are shown in Table 2.
(§4) Cells were inoculated in 96-well plates (cell density 2 × 10^4 cells/well) followed by incubation for 24 h at 37 °C. Paclitaxel and target compounds were added to the corresponding well. Subsequently, the cultures were incubated for 72 h. After the MTT solution (50 µL, 2 mg/mL) was added to cultures, the plates were incubated for an additional 4 h. Purple colored formazan crystals were dissolved in 200 µL DMSO, and the absorbance was recorded at 570 nm using Synergy HT, Bio-Tek (Winooski, VT, USA).

[3] = system: normal hepatocyte cell line LO2; test: MTT assay, cytotoxicity on normal cell LO2; assay type: cell-based; details: Hepatocyte; MTT, 72 h; mean of two independent determinations
Protocol: as §3, §4

[4] = Liposome loading with calcium acetate gradients; assay type: physicochemical; details: sediment precipitated after loading
Description: Since boronic acid RB(OH)2 is not only a weak acid, but also a structure that can complex with copper ions, ATP and saccharides, we investigated whether different inner phases could be employed to encapsulate compounds (4a, 4d, 13a, 17a, 17c) with good therapeutic index.

[5] = system: breast cancer cell line 4T1; test: MTT assay, cytotoxicity on 4T1; assay type: cell-based, mouse; details: for GI50: Mus musculus, MTT, 72 h, mean of two independent determinations; for TI (LO2/4T1): therapeutic index, GI50 LO2 / GI50 4T1
Protocol: as §3, §4

[6] = system: lung cancer cell line A549; test: MTT assay, cytotoxicity on A549; assay type: cell-based, human; details: for GI50: Homo sapiens, A549, MTT, 72 h, mean of two independent determinations; for TI (LO2/A549): therapeutic index, GI50 LO2 / GI50 A549
Protocol: as §3, §4

[7] = Liposome loading with ATP and saccharides gradients; assay type: physicochemical; details: gradient ATP
Protocol: as §1
Thus, the copper ion gradient was chosen for further experiments.
Blank liposomes were prepared for membrane hydration. HSPC, chol and DSPE-PEG2000 were dissolved using chloroform at a mass ratio of 3:1:0.02 and then spin-evaporated at 37 °C. The obtained film was then hydrated with 300 mM Cu-Glu (pH 7.4) at 65 °C for 30 min. […] The encapsulation efficiency and drug loading efficiency of compound 4d were determined using HPLC. The morphologies of liposomes were characterized using a transition electron microscope (TEM, Hitachi HT7700, Tokyo, Japan); then, their size, PDI and Zeta potential were measured using a Zetasizer Nano ZS90 (Malvern, UK).

[8] = Characterisation of compound 4d liposome (size, PDI, zeta potential, loading, storage stability); assay type: physicochemical; details: optimal formulation, drug to lipid ratio 1:10
Protocol: The morphology of compound 4d liposome is shown in Figure 3 and Figure 4, with spherical particles, a narrow size distribution at ~110 nm and zeta potential at ~−15 mV (Table S2).
as §2

[9] = system: 4T1 xenograft tumor; test: In vivo antitumor efficacy and toxicity, 4T1 tumor model; details: 8 mg/kg, 4 times; mice bearing 4T1 tumor
Protocol: A549 and HCT-116 cells are human tumor cells, while 4T1 cells are mouse tumor cells. Based on the availability of the tumor model, mice bearing a 4T1 xenograft tumor were used to study the in vivo antitumor efficacy of the compound 4d liposome. As depicted in Figure 6a, there was difference between compound 4d (8 mg/kg) and the paclitaxel control group (8 mg/kg).
The antitumor effect was evaluated by the nude mice armpit tumor model bearing breast cancer 4T1 cells. When the average tumor volume reached 100 mm^3, the treatment was initiated at a 3-day interval for 12 days. The mice were randomly divided into five groups (n = 5 per group) receiving different palictaxel at 8 mg/kg as follows: saline (the control group), taxol, compound 4d, compound 4d liposome, high dose 4d liposome (3 times the dose, immediately 24 mg/kg). Tumor volume (V = length × width^2/2) and body weight were recorded. At the end of the experiment, mice were sacrificed. The obtained tumors were accurately weighed to calculate the tumor burden (Wtumor/Wbody) and tumor inhibition rate [TIR= (Wcontrol tumor − Wsample tumor)/Wcontrol tumor].

| SMILES | loading into liposomes, copper ion as complexed metal ion in the inner phase [1] | GI50 [2] | TI (LO2/HCT-116) [2] | GI50 [3] | encapsulation into liposomes by calcium acetate gradients [4] | inhibition % at fixed concentration, 4T1 (printed in GI50 column) ([5]; @100 nM) | GI50 [6] | TI (LO2/A549) [6] | loading with inner phase of ATP [7] | Encapsulated efficiency, optimal formulation ([1]; drug-to-lipid ratio of 0.1 w/w (1:10)) | GI50 [5] | TI (LO2/4T1) [5] | Loading efficiency (%) [8] | tumor inhibition rate [9] | inhibition % at fixed concentration, HCT-116 (printed in GI50 column) ([2]; @6.25 nM) | inhibition % at fixed concentration, A549 (printed in GI50 column) ([6]; @6.25 nM) |
| --- | --- | --- | --- | --- | --- | --- | --- | --- | --- | --- | --- | --- | --- | --- | --- | --- |
| CC(=O)OC1C(=O)C2(C)C(O)CC3OCC3(OC(C)=O)C2C(OC(=O)c2ccccc2)C2(O)CC(OC(=O)C(OC(=O)CCC(=O)OCc3ccc(B(O)O)cc3)C(NC(=O)c3ccccc3)c3ccccc3)C(C)=C1C2(C)C (stereo not shown) [Compound 4a, 2’-O-[4-((4-boronobenzyl)oxy)-4-oxobutyryl]taxol] | failed in loading into the liposomes | 0.0737 µM | 25.4 | 1.88 µM | not feasible | 20.85%@100 nM | 0.0685 µM | 27.4 | – | – | – | – | – | – | – | – |
| CC(=O)OC1C(=O)C2(C)C(O)CC3OCC3(OC(C)=O)C2C(OC(=O)c2ccccc2)C2(O)CC(OC(=O)C(OC(=O)CSSCC(=O)OCc3ccc(B(O)O)cc3)C(NC(=O)c3ccccc3)c3ccccc3)C(C)=C1C2(C)C (stereo not shown) [Compound 4d, 2’-O-[2-((2-((4-boronobenzyl)oxy)-2-oxoethyl)disulfaneyl)acetyl]taxol] | – | 0.013 µM | 49.1 | 0.639 µM | not feasible | – | 0.0139 µM | 45.9 | not successful | > 95% | 0.0698 µM | 9.2 | 9.02% | – | – | – |
| CC(=O)OC1C(=O)C2(C)C(O)CC3OCC3(OC(C)=O)C2C(OC(=O)c2ccccc2)C2(O)CC(OC(=O)C(OC(=O)OCc3ccc(B(O)O)cc3)C(NC(=O)c3ccccc3)c3ccccc3)C(C)=C1C2(C)C (stereo not shown) [Compound 13a, 2’-O-[4-boronobenzyl carbonate]taxol] | failed in loading into the liposomes | 0.00873 µM | 111.3 | 0.972 µM | not feasible | – | 0.0225 µM | 43.3 | – | – | 0.0929 µM | 10.5 | – | – | – | – |
| CC(=O)OC1C(=O)C2(C)C(O)CC3OCC3(OC(C)=O)C2C(OC(=O)c2ccccc2)C2(O)CC(OC(=O)C(OC(=O)CCB(O)O)C(NC(=O)c3ccccc3)c3ccccc3)C(C)=C1C2(C)C (stereo not shown) [Compound 17a, 2’-O-[3-boronopropanoyl]taxol] | failed in loading into the liposomes | 0.00798 µM | 89.5 | 0.715 µM | not feasible | – | 0.0218 µM | 32.7 | – | – | 0.0681 µM | 10.5 | – | – | – | – |
| CC(=O)OC1C(=O)C2(C)C(O)CC3OCC3(OC(C)=O)C2C(OC(=O)c2ccccc2)C2(O)CC(OC(=O)C(OC(=O)CCCCB(O)O)C(NC(=O)c3ccccc3)c3ccccc3)C(C)=C1C2(C)C (stereo not shown) [Compound 17c, 2’-O-[5-boronopentanoyl]taxol] | failed in loading into the liposomes | 0.00638 µM | 222.1 | 1.42 µM | not feasible | – | 0.0448 µM | 31.6 | – | – | 0.0872 µM | 16.3 | – | – | – | – |
| CC(=O)O[C@H]1C(=O)[C@@]2(C)[C@H]([C@H](OC(=O)c3ccccc3)[C@]3(O)C[C@H](OC(=O)[C@H](O)[C@@H](NC(=O)c4ccccc4)c4ccccc4)C(C)=C1C3(C)C)[C@]1(OC(C)=O)CO[C@@H]1C[C@@H]2O [paclitaxel] | – | – | – | 0.0691 µM | – | – | – | – | – | – | 0.0253 µM | 2.7 | – | 58.5% | 81.86%@6.25 nM | 64.96%@6.25 nM |
